Laboratory results reported in patent US10336723B2, “Inhibitors of TrkA kinase” (GVK BIOSCIENCES PRIVATE LIMITED, priority 2015, dated 2019).

Biological target: T1, human TrkA (Homo sapiens, UniProt P04629)
T1 construct: expressed in transfected cells; host or cells: AD293 cells
Assay: TrkA Cell Based Phosphorylation Assay
Settings: Recombinant AD293 cells overexpressing human TrkA; TrkA Y490 phosphorylation upon 6 nM NGF stimulation; Phospho-TrkA (Tyr490) sandwich ELISA
Procedure: Recombinant AD293 cells overexpressing human TrkA were used to determine TrkA Y490 phosphorylation upon NGF stimulation. 25 k cells plated in serum free DMEM medium in a 96 well plate were serum starved for 2 hours at 37° C. in 5% CO2 incubator. Test compounds were added to the plate at a final concentration of 2.5% DMSO and incubated for 20 min at 37° C. 6 nM NGF was added and incubated for 5 min at 37° C. The plate was immediately centrifuged at 2000 rpm for 1 min and media removed. Lysis buffer containing 1% NP-40 Substitute, 20 mM Tris (pH 8.0), 137 mM NaCl final concentrations was added, mixed for one minute and kept on ice for 15 min with shaking every 5 minutes. 100 ul of the cell lysate was added to the PathScan® Phospho-TrkA (Tyr490) Sandwich ELISA plate with precoated wells and ELISA performed according to the manufacturer's instructions for color development. IC50 was generated in Graph Pad Prism software in non linear regression format.

T1 sequence (P04629 33-796): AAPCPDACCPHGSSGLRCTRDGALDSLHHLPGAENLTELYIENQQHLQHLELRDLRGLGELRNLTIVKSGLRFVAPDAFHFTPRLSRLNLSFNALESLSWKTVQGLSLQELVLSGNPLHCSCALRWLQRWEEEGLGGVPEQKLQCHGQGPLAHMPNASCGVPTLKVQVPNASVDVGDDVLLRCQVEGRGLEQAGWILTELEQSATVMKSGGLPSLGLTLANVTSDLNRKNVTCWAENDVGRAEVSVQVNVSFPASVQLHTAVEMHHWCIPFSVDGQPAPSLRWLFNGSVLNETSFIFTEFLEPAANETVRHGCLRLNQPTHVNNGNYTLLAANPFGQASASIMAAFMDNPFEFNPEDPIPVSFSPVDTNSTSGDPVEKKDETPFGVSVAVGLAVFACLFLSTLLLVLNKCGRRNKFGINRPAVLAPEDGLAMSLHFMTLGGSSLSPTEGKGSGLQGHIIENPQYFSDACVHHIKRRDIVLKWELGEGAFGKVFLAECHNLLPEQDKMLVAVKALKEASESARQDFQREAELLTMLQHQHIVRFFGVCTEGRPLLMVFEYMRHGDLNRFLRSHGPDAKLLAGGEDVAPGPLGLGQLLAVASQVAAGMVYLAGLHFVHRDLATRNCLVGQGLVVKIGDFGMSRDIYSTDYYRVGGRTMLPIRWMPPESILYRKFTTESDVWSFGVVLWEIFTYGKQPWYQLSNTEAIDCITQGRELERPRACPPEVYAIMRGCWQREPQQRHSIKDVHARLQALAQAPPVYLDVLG

Row | IC50 [µM] | Compound
1 | 0.1 to 1 | COCCN1C[C@@H](NC(=O)Nc2cc3c(OC)cccc3nc2-c2ccccc2)[C@H](c2ccccc2)C1 [Example 16, 1-(5-Methoxy-2-phenylquinolin-3-yl)-3-((3S,4R)-1-(2-methoxyethyl)-4-phenylpyrrolidin-3-yl)urea]
2 | < 0.1 | COCCN1C[C@@H](NC(=O)Nc2cc3ccccc3nc2-c2ccccc2)[C@H](c2ccccc2)C1 [Example 2, 1-((3S,4R)-1-(2-methoxyethyl)-4-phenylpyrrolidin-3-yl)-3-(2-phenylquinolin-3-yl)urea]
3 | < 0.1 | COCCN1C[C@@H](NC(=O)Nc2cc3cc(OC)c(OC)cc3nc2-c2ccccc2)[C@H](c2cccc(F)c2)C1 [Example 74, 1-(6,7-Dimethoxy-2-phenylquinolin-3-yl)-3-((3S,4R)-4-(3-fluorophenyl)-1-(2-methoxyethyl)pyrrolidin-3-yl)urea]
4 | < 0.1 | COCCN1C[C@@H](NC(=O)Nc2c(-c3ccccc3)ncc3ccccc23)[C@H](c2ccccc2)C1 [Example 149, 1-((3S,4R)-1-(2-Methoxyethyl)-4-phenylpyrrolidin-3-yl)-3-(3-phenylisoquinolin-4-yl)urea]
5 | < 0.1 | COCCN1C[C@@H](NC(=O)Nc2c(-c3ccccc3)nc(N3CCOCC3)c3ccccc23)[C@H](c2ccccc2)C1 [Example 172, 1-((3S,4R)-1-(2-Methoxyethyl)-4-phenylpyrrolidin-3-yl)-3-(1-morpholino-3-phenylisoquinolin-4-yl)urea]
6 | 0.1 to 1 | COCCN1C[C@@H](NC(=O)Nc2cccc3oc4ccccc4c23)[C@H](c2ccccc2)C1 [Example 104, 1-(Dibenzo[b,d]furan-1-yl)-3-((3S,4R)-1-(2-methoxyethyl)-4-phenylpyrrolidin-3-yl)urea]
7 | < 0.1 | COCCN1C[C@@H](NC(=O)Nc2cc3c(nc2-c2ccccc2)CCCC3)[C@H](c2ccccc2)C1 [Example 125, 1-((3S,4R)-1-(2-Methoxyethyl)-4-phenylpyrrolidin-3-yl)-3-(2-phenyl-5,6,7,8-tetrahydroquinolin-3-yl)urea]
8 | > 1 | COCCN1C[C@@H](NC(=O)Nc2cc3ccccc3nc2-c2ccncc2)[C@H](c2ccccc2)C1 [Example 33, 1-((3S,4R)-1-(2-Methoxyethyl)-4-phenylpyrrolidin-3-yl)-3-(2-(pyridin-4-yl)quinolin-3-yl)urea]
9 | 0.1 to 1 | COCCN1C[C@@H](NC(=O)Nc2c(C(C)(C)C)nc(-c3cnn(C)c3)c3ccccc23)[C@H](c2ccccc2)C1 [Example 165, 1-(3-(tert-Butyl)-1-(1-methyl-1H-pyrazol-4-yl)isoquinolin-4-yl)-3-((3S,4R)-1-(2-methoxyethyl)-4-phenylpyrrolidin-3-yl)urea]
10 | 0.1 to 1 | COCCN1C[C@@H](NC(=O)Nc2c(-c3ccccc3)nc(C(=O)O)c3cc(F)ccc23)[C@H](c2ccccc2)C1 [Example 190, 7-Fluoro-4-(3-(1-(2-methoxyethyl)-4-phenylpyrrolidin-3-yl)ureido)-3-phenylisoquinoline-1-carboxylic acid]
